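Five compound concentrations were applied to cells in 96-well plates for 48 hours; endpoints were derived by simple linear interpolation of the resulting dose-response curve. TGI denotes the concentration required for complete inhibition of growth.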
Legend:
Test in all cases: inhibition of tumour cell growth, NCI panel, 48 h
[1] = tested on: 786-0 renal
[2] = tested on: A549 NSCLC
[3] = tested on: ACHN renal
[4] = tested on: CAKI-1 renal
[5] = tested on: CCRF-CEM leukemia
[6] = tested on: COLO 205 colon
[7] = tested on: DLD-1 colon
[8] = tested on: DMS 114 small cell lung
[9] = tested on: DMS 273 small cell lung
[10] = tested on: HCC-2998 colon
[11] = tested on: HCT-116 colon
[12] = tested on: HCT-15 colon
[13] = tested on: HL-60(TB) leukemia
[14] = tested on: HOP-18 NSCLC
[15] = tested on: HOP-62 NSCLC
[16] = tested on: HT29 colon
[17] = tested on: IGROV1 ovarian
[18] = tested on: K-562 leukemia
[19] = tested on: KM12 colon
[20] = tested on: KM20L2 colon
[21] = tested on: LXFL 529 NSCLC
[22] = tested on: M14 melanoma
[23] = tested on: M19-MEL melanoma
[24] = tested on: MALME-3M melanoma
[25] = tested on: MOLT-4 leukemia
[26] = tested on: NCI-H226 lung
[27] = tested on: NCI-H23 lung
[28] = tested on: NCI-H460 lung
[29] = tested on: NCI-H522 lung
[30] = tested on: OVCAR-3 ovarian
[31] = tested on: OVCAR-4 ovarian
[32] = tested on: OVCAR-5 ovarian
[33] = tested on: OVCAR-8 ovarian
[34] = tested on: RPMI-8226 leukemia
[35] = tested on: RXF 393 renal
[36] = tested on: SF-268 CNS
[37] = tested on: SF-295 CNS
[38] = tested on: SF-539 CNS
[39] = tested on: SK-MEL-2 melanoma
[40] = tested on: SK-MEL-28 melanoma
[41] = tested on: SK-MEL-5 melanoma
[42] = tested on: SK-OV-3 ovarian
[43] = tested on: SN12C renal
[44] = tested on: SNB-19 CNS
[45] = tested on: SNB-75 CNS
[46] = tested on: SNB-78 CNS
[47] = tested on: SR leukemia
[48] = tested on: SW-620 colon
[49] = tested on: U251 CNS
[50] = tested on: UACC-257 melanoma
[51] = tested on: UO-31 renal
[52] = tested on: EKVX NSCLC
[53] = tested on: HOP-92 NSCLC
[54] = tested on: TK-10 renal
[55] = tested on: UACC-62 melanoma
[56] = tested on: A498 renal
[57] = tested on: LOX IMVI melanoma

## COC1OC(C)C(OC(=O)C(C)(C)C)C(OS(=O)(=O)c2ccc(C)cc2)C1OS(=O)(=O)c1ccc(C)cc1 (configuration not stated)
[1]
  TGI: > 100 µM
[2]
  TGI: > 100 µM
[3]
  TGI: > 100 µM
[4]
  TGI: > 100 µM
[5]
  TGI: > 100 µM
[6]
  TGI: > 100 µM
[7]
  TGI: > 100 µM
[8]
  TGI: > 100 µM
[9]
  TGI: > 100 µM
[10]
  TGI: > 100 µM
[11]
  TGI: > 100 µM
[12]
  TGI: > 100 µM
[13]
  TGI: > 100 µM
[14]
  TGI: > 100 µM
[15]
  TGI: > 100 µM
[16]
  TGI: > 100 µM
[17]
  TGI: > 100 µM
[18]
  TGI: > 100 µM
[19]
  TGI: > 100 µM
[20]
  TGI: > 100 µM
[21]
  TGI: > 100 µM
[22]
  TGI: > 100 µM
[23]
  TGI: > 100 µM
[24]
  TGI: > 100 µM
[25]
  TGI: > 100 µM
[26]
  TGI: > 100 µM
[27]
  TGI: > 100 µM
[28]
  TGI: > 100 µM
[29]
  TGI: > 100 µM
[30]
  TGI: > 100 µM
[31]
  TGI: > 100 µM
[32]
  TGI: > 100 µM
[33]
  TGI: > 100 µM
[34]
  TGI: > 100 µM
[35]
  TGI: > 100 µM
[36]
  TGI: > 100 µM
[37]
  TGI: > 100 µM
[38]
  TGI: > 100 µM
[39]
  TGI: > 100 µM
[40]
  TGI: > 100 µM
[41]
  TGI: > 100 µM
[42]
  TGI: > 100 µM
[43]
  TGI: > 100 µM
[44]
  TGI: > 100 µM
[45]
  TGI: > 100 µM
[46]
  TGI: > 100 µM
[47]
  TGI: > 100 µM
[48]
  TGI: > 100 µM
[49]
  TGI: > 100 µM
[50]
  TGI: > 100 µM
[51]
  TGI: > 100 µM

## C=C1CC(c2ccc(O)c(OC)c2)Oc2c(OC)cccc21 (configuration not stated)
[1]
  TGI: > 100 µM
[2]
  TGI: > 100 µM
[3]
  TGI: > 100 µM
[4]
  TGI: > 100 µM
[5]
  TGI: 93.7 µM
[6]
  TGI: > 100 µM
[7]
  TGI: > 100 µM
[8]
  TGI: 56.1 µM
[9]
  TGI: 55.2 µM
[52]
  TGI: > 100 µM
[10]
  TGI: > 100 µM
[11]
  TGI: > 100 µM
[12]
  TGI: > 100 µM
[13]
  TGI: 49.9 µM
[14]
  TGI: > 100 µM
[15]
  TGI: > 100 µM
[53]
  TGI: 53.1 µM
[16]
  TGI: > 100 µM
[17]
  TGI: > 100 µM
[18]
  TGI: 64.8 µM
[19]
  TGI: > 100 µM
[20]
  TGI: > 100 µM
[21]
  TGI: > 100 µM
[22]
  TGI: > 100 µM
[23]
  TGI: > 100 µM
[25]
  TGI: > 100 µM
[26]
  TGI: > 100 µM
[27]
  TGI: > 100 µM
[28]
  TGI: > 100 µM
[29]
  TGI: 49.5 µM
[30]
  TGI: > 100 µM
[31]
  TGI: > 100 µM
[32]
  TGI: > 100 µM
[33]
  TGI: > 100 µM
[36]
  TGI: > 100 µM
[37]
  TGI: > 100 µM
[38]
  TGI: 52.2 µM
[40]
  TGI: > 100 µM
[41]
  TGI: > 100 µM
[42]
  TGI: > 100 µM
[43]
  TGI: > 100 µM
[44]
  TGI: > 100 µM
[45]
  TGI: > 100 µM
[46]
  TGI: > 100 µM
[47]
  TGI: 61.3 µM
[48]
  TGI: > 100 µM
[54]
  TGI: > 100 µM
[49]
  TGI: > 100 µM
[50]
  TGI: > 100 µM
[55]
  TGI: > 100 µM
[51]
  TGI: > 100 µM

## O=C1c2ccccc2C2(O)Nc3c(ccc4ccccc34)C12O (configuration not stated)
[1]
  TGI: > 100 µM
[56]
  TGI: > 100 µM
[2]
  TGI: > 100 µM
[3]
  TGI: > 100 µM
[4]
  TGI: > 100 µM
[5]
  TGI: > 100 µM
[6]
  TGI: > 100 µM
[7]
  TGI: > 100 µM
[8]
  TGI: > 100 µM
[9]
  TGI: > 100 µM
[52]
  TGI: > 100 µM
[10]
  TGI: > 100 µM
[11]
  TGI: > 100 µM
[12]
  TGI: > 100 µM
[13]
  TGI: > 100 µM
[14]
  TGI: > 100 µM
[15]
  TGI: > 100 µM
[16]
  TGI: > 100 µM
[17]
  TGI: > 100 µM
[18]
  TGI: > 100 µM
[19]
  TGI: > 100 µM
[20]
  TGI: > 100 µM
[57]
  TGI: > 100 µM
[21]
  TGI: > 100 µM
[22]
  TGI: > 100 µM
[23]
  TGI: > 100 µM
[24]
  TGI: > 100 µM
[25]
  TGI: > 100 µM
[26]
  TGI: > 100 µM
[27]
  TGI: > 100 µM
[28]
  TGI: > 100 µM
[29]
  TGI: > 100 µM
[30]
  TGI: > 100 µM
[31]
  TGI: > 100 µM
[32]
  TGI: > 100 µM
[33]
  TGI: > 100 µM
[34]
  TGI: > 100 µM
[35]
  TGI: > 100 µM
[36]
  TGI: > 100 µM
[37]
  TGI: > 100 µM
[38]
  TGI: > 100 µM
[39]
  TGI: > 100 µM
[40]
  TGI: > 100 µM
[41]
  TGI: > 100 µM
[42]
  TGI: > 100 µM
[43]
  TGI: > 100 µM
[44]
  TGI: > 100 µM
[45]
  TGI: > 100 µM
[46]
  TGI: > 100 µM
[48]
  TGI: > 100 µM
[54]
  TGI: > 100 µM
[49]
  TGI: > 100 µM
[50]
  TGI: > 100 µM
[55]
  TGI: > 100 µM
[51]
  TGI: > 100 µM

From PubChem BioAssay (NCI)
